Measurements published in patent US9737512B2, “Methods and compositions for treating chronic pain” (THE BOARD OF REGENTS OF THE UNIVERSITY OF TEXAS SYSTEM, priority 2015, dated 2017).

Tests used:
[1] = tested on: ovalbumin-induced oral tolerance; conditions: daily 10 mg/kg IP or 50 mg/kg oral gavage; cited from earlier work
[2] = tested on: SNI-induced mechanical allodynia; experiment: Spared nerve injury (SNI)-induced mechanical allodynia, von Frey; assay type: in vivo, mice
Experimental: FIG. 3. Effect of ESI-09 on Spared nerve injury (SNI)-induced mechanical allodynia. Spared nerve injury was performed on WT mice and mice were treated daily with ESI-09 (50 mg/kg) or vehicle by oral gavage for 6 days starting on the 3rd day after SNI. Mechanical allodynia was monitored in (A) ipsi- and (B) contralateral paw using von Frey hairs and the up and down method at 24 hours after ESI-treatment (n=7 per group). Data are expressed as 50% paw withdrawal thresholds calculated as described in the methods section and represent mean±SEM. n=7/group. *p<0.05, **p<0.01 vs. vehicle group.
It has been shown that EPAC1−/− mice are protected against neuropathic pain in a model of nerve injury. The effect of ESI-09 in the spared nerve injury (SNI) model of chronic neuropathic pain was examined. […] As expected, mice treated with vehicle developed unilateral mechanical allodynia ([…]). […] The beneficial effect of ESI-09 was maintained for 48 hours after the last dose.

[3] = tested on: CFA-induced heat hyperalgesia; experiment: CFA-induced heat hyperalgesia, Hargreaves test; assay type: in vivo, mice
Experimental: FIG. 2. Effect of ESI-09 on CFA-induced heat hyperalgesia. (A) Mice (n=4/group) received 5 μl CFA intraplantarly in the hind paws and were treated with vehicle or ESI-09 20 mg/kg (n=4) daily by oral gavage for 6 days starting after CFA injection. Heat hyperalgesia was determined using the Hargreaves test and is expressed as heat-withdrawal latency in seconds. (B) CFA-induced heat hyperalgesia in WT and Epac1−/− mice. (C) Heat sensitivity of saline treated mice with 20 mg/kg ESI-09. Data represent mean±SEM (n=4 per group).
Intraplantar administration of CFA also induces significant heat hyperalgesia (FIG. 2A). However, no effect of ESI-09 (20 mg/kg) on heat hyperalgesia was detected (FIG. 2A). Consistently, CFA-induced heat hyperalgesia was not different between WT and Epac1−/− mice.

[4] = tested on: PKA; conditions: at 25 μM; cited from earlier work
[5] = tested on: CFA-induced mechanical allodynia; experiment: CFA-induced mechanical allodynia, von Frey test; assay type: in vivo, mice
Experimental: FIG. 1. Effect of ESI-09 in CFA-induced inflammatory mechanical allodynia. (A) Mice (n=4/group) received 5 μl CFA intraplantarly in the hind paws and were treated with vehicle or ESI-09 20 mg/kg (n=4) daily by oral gavage for 6 days starting immediately after CFA injection. Mechanical allodynia was quantified with von Frey Hairs using the up and down method at 24 hours after ESI treatment. (B) CFA-induced mechanical allodynia in WT, heterozygous, and homozygous Epac1-knockout mice. The sensitivity to mechanical stimulation was followed over time in wild-type (WT, n=3), Epac1^+/− (HE, n=6) and Epac1^−/− (HO, n=5) mice after intraplantar injection of 5 μl CFA. […] (D) Dose-response curve for the effect of ESI-09 (5, 20, or 50 mg/kg). Treatment was started on the 3rd day after CFA administration (n=4/group) (E) Mechanical allodynia was measured in WT mice with 6 days treatments of ESI-09 20 (n=3) and 50 mg/kg (n=4) to control for a potential effect on baseline mechanical sensitivity. Data are expressed as 50% withdrawal threshold in grams calculated as described in the methods section and represent mean±SEM. […] In FIG. 1B, *p<0.05, ** p<0.01 for WT versus HO, #p<0.05, ##P<0.01 for WT versus HE, +p<0.05, ++p<0.01 for HE versus HO. In FIG. 1D, **p<0.01 and ##p<0.01 are ESI-09 50 mg/kg and ESI-09 20 mg/kg compared to the Vehicle treated mice.
To determine whether the Epac inhibitor ESI-09 can be used to treat inflammatory pain, the CFA model was used. CFA was administered intraplantarly and mice were treated with ESI-09 20 mg/kg daily by oral gavage for 6 days starting immediately after injection of CFA. Mechanical allodynia was examined using the von Frey test.
ESI-09 20 mg/kg was administered orally three days after CFA. […] The effect of ESI-09 was dose-dependent (FIG. 1D). […] The beneficial effect of ESI-09 was detectable until at least 24 hours after the last dose. No effect of daily oral administration of 50 mg/kg ESI-09 on mechanical sensitivity in saline treated control mice was observed ([…]).

[6] = target: T1, EPAC2 (Mus musculus, UniProt Q9EQZ6); conditions: cited from earlier work
T1 sequence (Q9EQZ6 1-1011): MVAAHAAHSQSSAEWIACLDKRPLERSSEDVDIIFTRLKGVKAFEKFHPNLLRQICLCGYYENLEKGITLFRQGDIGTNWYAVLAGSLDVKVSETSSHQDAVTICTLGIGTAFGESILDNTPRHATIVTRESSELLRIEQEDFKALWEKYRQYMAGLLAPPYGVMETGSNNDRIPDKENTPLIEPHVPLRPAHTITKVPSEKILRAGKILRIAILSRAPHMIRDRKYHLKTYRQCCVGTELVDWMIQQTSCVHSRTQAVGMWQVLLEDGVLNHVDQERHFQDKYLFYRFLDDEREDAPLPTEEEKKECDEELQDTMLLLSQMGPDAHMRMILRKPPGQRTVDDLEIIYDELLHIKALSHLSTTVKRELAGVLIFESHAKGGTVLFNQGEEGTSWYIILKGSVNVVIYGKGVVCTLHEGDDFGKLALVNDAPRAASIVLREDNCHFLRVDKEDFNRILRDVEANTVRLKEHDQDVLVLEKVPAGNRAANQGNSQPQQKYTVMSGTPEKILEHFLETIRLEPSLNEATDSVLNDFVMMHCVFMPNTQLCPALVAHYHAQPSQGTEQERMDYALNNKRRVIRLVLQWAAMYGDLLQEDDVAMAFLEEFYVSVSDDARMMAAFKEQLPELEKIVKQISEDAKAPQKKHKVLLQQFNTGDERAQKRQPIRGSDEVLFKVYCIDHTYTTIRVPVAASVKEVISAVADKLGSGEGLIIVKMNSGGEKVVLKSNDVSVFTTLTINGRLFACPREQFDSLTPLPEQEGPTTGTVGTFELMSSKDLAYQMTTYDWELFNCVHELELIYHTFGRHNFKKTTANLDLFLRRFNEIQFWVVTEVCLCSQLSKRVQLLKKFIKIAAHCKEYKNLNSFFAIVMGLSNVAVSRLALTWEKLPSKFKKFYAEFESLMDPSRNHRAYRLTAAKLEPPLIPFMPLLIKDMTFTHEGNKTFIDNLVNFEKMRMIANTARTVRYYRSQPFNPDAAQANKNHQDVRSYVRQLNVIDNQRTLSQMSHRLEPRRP

[7] = tested on: rickettsioses; conditions: daily 10 mg/kg IP or 50 mg/kg oral gavage, mice; cited from earlier work
[8] = tested on: pancreatic cancer cell lines; conditions: cited from earlier work
[9] = tested on: paclitaxel-induced mechanical allodynia; experiment: Paclitaxel (chemotherapy)-induced mechanical allodynia, von Frey; assay type: in vivo, mice
Experimental: FIG. 4. Effect of ESI-09 on chemotherapy-induced mechanical allodynia. Mice (n=5/group) were treated with paclitaxel (10 mg/kg, Monday, Wednesday and Friday) for two weeks. ESI-09 (20 mg/kg) or vehicle was given by oral gavage for 6 days starting on the first day (A) or 10 days (B) after completion of paclitaxel treatment. The sensitivity to mechanical stimulation was determined in wild-type (n=5) and Epac1−/− (n=4) in the same paclitaxel model (C). Mechanical allodynia was monitored by von Frey hair using the up and down method. Data are expressed as means±SEM. *p<0.05, ** p<0.01.
Chemotherapy-induced peripheral neuropathy is a frequent side effect of cancer treatment, and currently there are no FDA-approved drugs to treat or prevent chemotherapy-induced neuropathy. The model of paclitaxel-induced mechanical allodynia to investigate the potential effect of ESI-09 on chemotherapy-induced neuropathy. Mice were treated with three doses (10 mg/kg/dose) of paclitaxel per week for 2 weeks. Administration of ESI-09 was started on the first day after completion of paclitaxel treatment when there was clear allodynia present. Mice were treated daily with ESI-09 (20 mg/kg) or vehicle by oral gavage for 6 days. […] The beneficial effect of treatment was detectable until 72 hours after the last dose of ESI-09. In a second set of experiments, ESI-09 treatment was delayed until 10 days after the completion of paclitaxel treatment.

[10] = tested on: pancreatic cell lines; conditions: cited from earlier work
[11] = 50 mg/kg oral gavage daily 6 days, starting 3 days after SNI

CC(C)(C)c1cc(C(=O)/C(C#N)=N/Nc2cccc(Cl)c2)no1 [ESI-09, 3-(5-tert-Butyl-isoxazol-3-yl)-2-[(3-chlorophenyl)-hydrazono]-3-oxo-propionitrile]
ovalbumin-induced oral tolerance (recapitulates EPAC1 knockout phenotype) [1]: compromising ovalbumin-induced oral tolerance | SNI-induced mechanical allodynia, ipsilateral paw [2, 11]: almost completely reversed | normal mechanical sensitivity, contralateral paw [2, 11]: without affecting | time beneficial effect maintained after the last dose ([2]; SNI model, 50 mg/kg): 48 h | CFA-induced heat hyperalgesia ([3]; 20 mg/kg daily oral gavage): no effect | heat sensitivity of naïve animals ([3]; naïve animals): did not affect | activity against PKA [4]: no activity | CFA-induced mechanical allodynia ([5]; 5 mg/kg (lowest dose), started 3rd day after CFA): did not observe an effect | CFA-induced mechanical allodynia ([5]; 20 mg/kg daily oral gavage 6 days, starting immediately after CFA): strongly inhibited | time inhibition is maintained after administration ([5]; 20 mg/kg oral, started three days after CFA): at least 24 h | inhibition of CFA-induced mechanical allodynia at 2 hours ([5]; 20 mg/kg oral, started three days after CFA, 2 hours after administration): Partial inhibition | inhibition of CFA-induced mechanical allodynia at 6 hours ([5]; 20 mg/kg oral, started three days after CFA, 6 hours after administration): fully developed | CFA-induced mechanical allodynia ([5]; 20 mg/kg, started 3rd day after CFA): significantly reduced | mechanical sensitivity in saline treated control mice ([5]; 50 mg/kg daily oral): No effect | CFA-induced mechanical allodynia ([5]; 50 mg/kg, started 3rd day after CFA): significantly reduced | dose dependence of effect on CFA-induced mechanical allodynia ([5]; 5, 20 or 50 mg/kg, started 3rd day after CFA): dose-dependent | time beneficial effect detectable after the last dose ([5]; CFA model): at least 24 hours | mechanical sensitivity of control mice ([5]; ESI-09 given to control mice (no CFA)): did not have any effect | IC50 [6]: 1400 nM | protection from lethal rickettsioses (recapitulates EPAC1 knockout phenotype) [7]: protecting mice from lethal rickettsioses | migration of pancreatic cancer cell lines [8]: inhibits | paclitaxel-induced mechanical allodynia ([9]; 20 mg/kg oral gavage daily 6 days, started first day after completion of paclitaxel): almost completely rescued | time beneficial effect detectable after the last dose ([9]; paclitaxel model, 20 mg/kg): 72 h | paclitaxel-induced mechanical allodynia, later phase ([9]; treatment delayed until 10 days after completion of paclitaxel): significantly inhibited | insulin secretion [10]: blocks | phosphorylation of Akt [10]: blocks
